From ChEMBL document CHEMBL3108702, “Purinergic receptor P2X₇: a novel target for anti-inflammatory therapy” (Bioorg Med Chem, 2014)

molecular target: T1, P2X purinoceptor 7 (Homo sapiens, UniProt Q99572); test: Antagonist activity at P2X7 receptor (unknown origin); conditions: read-out: IC50
T1 sequence (Q99572 whole entry): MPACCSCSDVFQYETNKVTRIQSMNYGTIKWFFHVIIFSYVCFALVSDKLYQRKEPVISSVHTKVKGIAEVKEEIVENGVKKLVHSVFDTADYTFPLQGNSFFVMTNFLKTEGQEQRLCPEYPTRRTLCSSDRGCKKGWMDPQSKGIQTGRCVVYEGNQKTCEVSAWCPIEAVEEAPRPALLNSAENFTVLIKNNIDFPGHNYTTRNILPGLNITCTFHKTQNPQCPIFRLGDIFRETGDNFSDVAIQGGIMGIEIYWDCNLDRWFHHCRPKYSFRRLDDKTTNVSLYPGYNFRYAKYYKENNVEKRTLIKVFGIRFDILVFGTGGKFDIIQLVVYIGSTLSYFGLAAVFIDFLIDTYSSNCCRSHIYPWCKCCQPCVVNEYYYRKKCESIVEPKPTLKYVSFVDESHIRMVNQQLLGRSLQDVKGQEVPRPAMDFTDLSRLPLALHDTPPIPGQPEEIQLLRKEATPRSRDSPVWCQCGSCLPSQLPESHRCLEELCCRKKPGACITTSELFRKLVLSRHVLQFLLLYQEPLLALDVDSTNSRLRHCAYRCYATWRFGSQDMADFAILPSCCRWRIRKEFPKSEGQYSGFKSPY

Row | IC50 [nM] | SMILES
1 | 65.3 | CN([C@@H](Cc1ccc(OS(=O)(=O)c2cccc3cnccc23)cc1)C(=O)N1CCN(Cc2ccccc2)CC1)S(=O)(=O)c1cccc2cnccc12
2 | 94.4 | CN([C@@H](Cc1ccc(OS(=O)(=O)c2cccc3cnccc23)cc1)C(=O)N1CCN(c2ccccc2)CC1)S(=O)(=O)c1cccc2cnccc12

same assay, conditions: read-out: pIC50 (converted)

Row | SMILES | IC50 [nM]
3 | COc1ccc(Cl)c(NC(=O)CC23CC4CC(CC(C4)C2)C3)c1 | 63.1
4 | CC(NC(=O)c1ccc(Cl)cc1)C12CC3CC(CC(C3)C1)C2 (stereo not drawn) | 398
5 | CN(CC12CC3CC(CC(C3)C1)C2)C(=O)c1ccc(Cl)cc1 | 3980
6 | CN(Cc1ccc(Cl)cc1)CC12CC3CC(CC(C3)C1)C2 | 3980
7 | O=C(CC12CC3CC(CC(C3)C1)C2)Nc1ccc(Cl)cc1 | 501
8 | O=C(NCC12CC3CC(CC(C3)C1)C2)c1ccc(Cl)cc1Cl | 398
9 | COc1cccc(NC(=O)CC23CC4CC(CC(C4)C2)C3)c1C | 5.01
10 | COc1ccc(C)c(NC(=O)CC23CC4CC(CC(C4)C2)C3)c1 | 10

Results, then the compound that gave them:

Row | IC50 [nM] | SMILES
11 | > 1000 | Cc1nn(-c2ccccc2)c(C)c1NC(=O)NCc1ccc(F)cc1Cl
12 | > 1000 | O=C(CN1CC(=O)N(c2ccccc2)C1=O)NCc1ccc(F)cc1Cl
13 | > 1000 | Cc1nn(-c2ccccc2)c(C)c1Cc1nnc(Cc2ccc(Cl)cc2Cl)o1
14 | 9.12 | Clc1cccc(-n2ncnc2NCc2cccnc2)c1Cl
15 | 251 | Cc1cccc(-c2nnnn2Cc2cccnc2)c1C
16 | 3980 | COc1cccc(-c2nnnn2Cc2cccnc2)c1OC
17 | 7.94 | O=C(NCC12CC3CC(CC(C3)C1)C2)c1ccccc1Cl
18 | 126 | O=C(NCC12CC3CC(C1)CC(CNC(=O)c1ccc(Cl)cc1Cl)(C3)C2)c1ccc(Cl)cc1Cl
